Test results taken from ChEMBL document CHEMBL1130741, “Carboxy-substituted 2-azetidinones as cholesterol absorption inhibitors” (1998).

Legend:
Type in all cases: functional, Cricetulus griseus
[1] = tested on: Cricetinae gen. sp.; assay: Compound was tested for percent reduction of liver cholesterol esters absorption in cholesterol fed hamster model at an oral dose of 3 mg/kg/day
[2] = tested on: Cricetinae gen. sp.; assay: Compound was tested for percent reduction of serum cholesterol absorption in cholesterol fed hamster model at an oral dose of 3 mg/kg/day
[3] = tested on: Cricetinae gen. sp.; assay: Compound was tested for percent reduction of liver cholesterol esters absorption in cholesterol fed hamster model at an oral dose of 10 mg/kg/day
[4] = tested on: Cricetinae gen. sp.; assay: Compound was tested for percent reduction of serum cholesterol absorption in cholesterol fed hamster model at an oral dose of 10 mg/kg/day
[5] = tested on: Cricetinae gen. sp.; assay: Dose required to inhibit cholesterol absorption in cholesterol fed hamster model
[6] = tested on: Cricetinae gen. sp.; assay: Compound was tested for percent reduction of liver cholesterol esters absorption in cholesterol fed hamster model at an oral dose of 50 mg/kg/day

Row | Compound | Reduction [1] | Reduction [2] | Reduction [3] | Reduction [4] | Reduction [6] | other results
1 | COC(=O)Cc1ccc([C@@H]2[C@@H](CCCc3ccccc3)C(=O)N2c2ccc(F)cc2)cc1 | -61% | -16% |  |  |  | 
2 | CCN(CC)C(=O)CCc1ccc([C@@H]2[C@@H](CCCc3ccccc3)C(=O)N2c2ccc(F)cc2)cc1 |  |  | -19% | 0% |  | 
3 | COC(=O)Cc1ccc([C@@H]2[C@@H](CCCc3ccccc3)C(=O)N2c2ccc(OC)cc2)cc1 | -89% | -26% |  |  |  | ED50 [5]: 0.95 mg/kg/day
4 | COC(=O)C(C)(C)Oc1ccc([C@@H]2[C@@H](CCCc3ccccc3)C(=O)N2c2ccc(OC)cc2)cc1 |  |  |  |  | -80% | 
5 | O=C(O)CCc1ccc([C@@H]2[C@@H](CCCc3ccccc3)C(=O)N2c2ccc(F)cc2)cc1 |  |  | -63% | -32% |  | 
6 | COC(=O)/C=C/c1ccc([C@@H]2[C@@H](CCCc3ccccc3)C(=O)N2c2ccc(OC)cc2)cc1 |  |  |  |  | -90% | 
7 | COC(=O)CCc1ccc([C@@H]2[C@@H](CCCc3ccccc3)C(=O)N2c2ccc(F)cc2)cc1 |  |  | -72% | -26% |  | 
8 | COC(=O)CCc1ccc([C@@H]2[C@@H](CCCc3ccccc3)C(=O)N2c2ccc(OC)cc2)cc1 | -76% | -20% |  |  |  | ED50 [5]: 0.85 mg/kg/day
9 | CCN(CC)C(=O)Cc1ccc([C@@H]2[C@@H](CCCc3ccccc3)C(=O)N2c2ccc(F)cc2)cc1 |  |  | -19% | 0% |  | 
10 | O=C(O)Cc1ccc([C@@H]2[C@@H](CCCc3ccccc3)C(=O)N2c2ccc(F)cc2)cc1 |  |  | -97% | -44% |  | ED50 [5]: 1.1 mg/kg/day
11 | COC(=O)c1ccc([C@@H]2[C@@H](CCCc3ccccc3)C(=O)N2c2ccc(F)cc2)cc1 | -16% | 0% |  |  |  | 
12 | O=C(O)c1ccc([C@@H]2[C@@H](CCCc3ccccc3)C(=O)N2c2ccc(F)cc2)cc1 | -37% | 0% |  |  |  | 
13 | COc1ccc(N2C(=O)[C@H](CCCc3ccccc3)[C@H]2c2ccc(OC(C)(C)C(=O)O)cc2)cc1 (racemic) |  |  |  |  | -75% | 
14 | COC(=O)CCc1ccc([C@@H]2[C@@H](CCCc3ccccc3)C(=O)N2c2ccc(OC)cc2)cc1 (racemic) |  |  |  |  | -93% | 
15 | COc1ccc([C@@H]2[C@@H](CCCc3ccccc3)C(=O)N2c2ccc(OC)cc2)cc1 (racemic) [SCH-48461] |  |  |  |  | -78% | 
16 | COc1ccc([C@@H]2[C@@H](CCCc3ccccc3)C(=O)N2c2ccc(OC)cc2)cc1 [SCH-48461] |  |  | -93% | -43% |  | ED50 [5]: 2 mg/kg/day
